Source: patent US8188059B2, “Compounds and methods for modulating expression of GCGR” (Isis Pharmaceuticals, Inc., priority 2006, dated 2012)
Strand notation (5' to 3'): a small letter for the sugar, then the base; units joined by * are phosphorothioate-linked, units joined directly phosphodiester-linked; [ ] holds rarer units or linkages, { } end groups; capitals alone tell only the bases. [PALM-N] = nucleoside bearing a 2'-(butylacetamido)-palmitamide (C16 palmitic acid) substituent (N: the base); e = 2'-O-(2-methoxyethyl) (MOE); l = locked nucleic acid (LNA); k = constrained ethyl (cEt); [5mC] = 5-methylcytosine; d = 2'-deoxy (DNA)

What was measured:
mouse SGLT2 mRNA [1] = assay: Mouse SGLT2 mRNA levels in kidney, additional 1-10-1 and 2-8-2 MOE gapmers, Balb/c mice (Example 15, Table 68); type: in vivo
mouse SGLT2 mRNA [2] = assay: Mouse SGLT2 mRNA levels in kidney, MOE versus Methyleneoxy BNA gapmers, Balb/c mice (Example 15, Table 69); type: in vivo
Protocol: The effect of ISIS 379692 1-10-1 MOE gapmer and ISIS 388625 2-8-2 MOE gapmer are compared with the effect of ISIS 392170 1-10-1 Methyleneoxy BNA Gapmer and ISIS 392173 2-8-2 Methyleneoxy BNA Gapmer (see Table 69) on mouse SGLT2 mRNA levels in vivo. Data are taken from three experiments in which male 6-week old Balb/c mice were dosed twice per week for three weeks with 5, 25 and 125 nmol/kg of either the ISIS 379692 1-10-1 MOE gapmer or the ISIS 388625 2-8-2 MOE gapmer given by intraperitoneal injection. Mice were sacrificed 48 hours following last administration and evaluated for SGLT2 mRNA levels in kidney. Target levels were determined by RT, real-time PCR as described by other examples herein. PCR results were normalized to an internal ISIS control. The data are expressed as percent change (“+” indicates an increase, “−” indicates a decrease) relative to saline treated animals and are illustrated in Table 69.

rat SGLT2 mRNA = assay: Rat SGLT2 mRNA levels in kidney, ISIS 379692 and ISIS 388625, Sprague-Dawley rats (Example 15, Table 70); type: in vivo; conditions: i.p. twice per week for three weeks
Protocol: The effect of ISIS 379692 1-10-1 MOE gapmer and ISIS 388625 MOE 2-8-2 gapmer (see Table 70) on rat SGLT2 mRNA levels in vivo. […] Rats were sacrificed 48 hours following last administration and evaluated for SGLT2 levels in kidney. Target levels were determined by RT, real-time PCR as described by other examples herein. PCR results were normalized to an internal ISIS control.

[3] = Plasma glucose in ZDF rats, once a week for twelve weeks (Example 16, Table 71); type: in vivo, rat; conditions: compared to PBS and control treated animals
Protocol: (§1) ISIS 388625, 388626 and control oligo ISIS 388628 were analyzed for their effect on ZDF rat plasma glucose levels and HbA1c. The leptin receptor deficient Zucker diabetic fatty (ZDF) rat is a useful model for the investigation of type 2 diabetes. Diabetes develops spontaneously in these male rats at ages 8-10 weeks, and is associated with hyperphagia, polyuria, polydipsia, and impaired weight gain, symptoms which parallel the clinical symptoms of diabetes (Phillips M S, et al., 1996, Nat Genet. 13, 18-19). Six week old ZDF rats were injected intraperitoneally with short antisense compound at a dose of 400 nM/kg once a week for twelve weeks. Data are illustrated in Tables 71 and 72.

[4] = HbA1c status in ZDF rats (Example 16, Table 72); type: in vivo, rat; conditions: compared to PBS and control treated animals
Protocol: as §1

dog SGLT2 mRNA = assay: Dog SGLT2 mRNA levels in kidney, beagle dogs, subcutaneous (Example 17, Table 73); type: in vivo; conditions: for % change in SGLT2 expression relative to saline: subcutaneous twice weekly, day 46
Protocol: ISIS 388625 is a 2-8-2 MOE Gapmer with sequence […] (SEQ ID NO: 246) (e.g. see Table 71). The effect of ISIS 388625 on dog SGLT2 mRNA levels. Data are taken from two dosing groups in which a total of nine male beagle dogs were dosed with either one or ten mg/kg/week of ISIS or saline given by subcutaneous injection twice weekly. On day 46 of the study all dogs were sacrificed and evaluated for SGLT2 levels in kidney. Target levels were determined by quantitative RT, real-time PCR as described by other examples herein. PCR results were normalized to an internal ISIS control.

[5] = Standard glucose tolerance test and urinary glucose excretion in dog (Example 17); type: in vivo
Source text: Even greater reduction can be achieved at slightly higher doses. […] Peak plasma glucose levels were decreased by over 50% on average and the subsequent drop in glucose was lessened compared to saline controls in a standard glucose tolerance test.

ApoB mRNA [6] = assay: ApoB mRNA in liver of Balb/c mice, palmitic acid conjugates, single i.p. dose, with ED50 (Example 30, Table 95); type: in vivo, mouse; conditions: single i.p. injection
Protocol: (§2) 0.4, and 0.16 umol/kg. Each dose group consisted of four animals. A 5-10-5 MOE gapmer was used for a control treatment. Mice were sacrificed approximately 48 hours following the final dose. Liver tissue was collected for RNA isolation, and blood was collected for serum chemistry analyses. ApoB mRNA levels were measured by real-time PCR as described herein. ApoB mRNA levels were normalized to RNA levels as determined by RIBOGREEN, and are presented in Table 95 as percent inhibition relative to ApoB mRNA levels in saline-treated control animals.
(§3) At the 2.5 umol/kg dose, ApoB inhibition by the short antisense compounds was greater than observed with a 5-10-5 MOE gapmer at an equivalent dose. […] Triglycerides were reduced at the 2.5 and […] doses of ISIS 387462 and ISIS 391872.

[7] = Triglycerides, total cholesterol, HDL-C, LDL-C and adverse effects (Example 30); type: in vivo, mouse
Protocol: as §2, §3

PTP1B mRNA [8] = assay: Antisense inhibition of human PTP1B in HuVEC cells at 3 nM (Example 23, Table 84); type: cell-based
Protocol: Short antisense compounds targeted to a PTP1B nucleic acid were tested for their effects on PTP1B mRNA in vitro. Cultured HuVEC cells at a density of 5000 cells per well in a 96-well plate were treated as described herein with 3 nM of short antisense compound. After the treatment period, RNA was isolated from the cells and PTP1B mRNA levels were measured by quantitative real-time PCR, as described herein. PTP1B mRNA levels were adjusted according to total RNA content as measured by RIBOGREEN®. Results are presented as percent inhibition of PTP1B (% Inhib), relative to untreated control cells.

PTP1B mRNA [9] = assay: Antisense inhibition of human PTP1B in HepG2 cells at 25 nM (Example 24, Table 85); type: cell-based
Protocol: Short antisense compounds targeted to a PTP1B nucleic acid were tested for their effects on PTP1B mRNA in vitro. Cultured HepG2 cells at a density of 10000 cells per well in a 96-well plate were treated with 25 nM of antisense oligonucleotide. After the treatment period, RNA was isolated from the cells and PTP1B mRNA levels were measured by quantitative real-time PCR, as described herein. PTP1B mRNA levels were adjusted according to total RNA content as measured by RIBOGREEN®. Results are presented as percent inhibition (% Ihib) of PTP1B, relative to untreated control cells.

PTP1B mRNA [10] = assay: Dose response for human PTP1B in HuVEC cells, Primer Probe Set 198 (Example 25, Table 86); type: cell-based
Protocol: (§4) Human vascular endothelial (HuVEC) cells were plated at a density of 5000 cells per well and treated as described herein with nM concentrations of short antisense compound as indicated in Table 86. After the treatment period, RNA was isolated from the cells and PTP1B mRNA levels were measured by quantitative real-time PCR, as described herein. PTP1B mRNA levels were adjusted according to total RNA content as measured by RIBOGREEN®. Two different human PTP1B primer probe sets were used to measure mRNA levels. Results with Primer Probe Set (PPS) 198 are shown in Table 86, and results with Primer Probe Set (PPS) 3000 are shown in Table 87. Results are presented as percent inhibition of PTP1B mRNA expression relative to untreated control cells.

PTP1B mRNA [11] = assay: Dose response for human PTP1B in HuVEC cells, Primer Probe Set 3000 (Example 25, Table 87); type: cell-based
Protocol: as §4

ApoB mRNA [12] = assay: ApoB mRNA in liver of Balb/c mice, BNA short antisense compounds, i.p. twice per week for three weeks (Example 26, Table 89); type: in vivo, mouse; conditions: relative to saline
Protocol: as §2, with “The short antisense compounds shown in Table 88 were tested for their effects in vivo. […]” for “0.4, and 0.16 umol/kg. Each dose group consisted of four animals.”, “89” for “95”

ApoB mRNA [13] = assay: ApoB mRNA in liver of Balb/c mice, single i.p. dose 8, 4, 2 or 1 μmol/kg, with ED50 (Example 28, Table 92); type: in vivo, mouse; conditions: Balb/c mice, relative to saline
Protocol: as §2, with “The short antisense compounds tested were ISIS 387462” for “0.4,”, “ISIS 398296.” for “0.16 umol/kg.”, “92” for “95”
At the 8 umol/kg dose, ApoB inhibition by the short antisense compounds was greater than observed with a 5-10-5 MOE gapmer at an equivalent dose. […] Triglycerides were reduced at the highest dose.

[14] = 0.1 umol/kg i.p. twice per week for three weeks

Substance: ISIS 388625: SGLT2; TGTTCCAGCCCA 2-8-2 MOE Gapmer (antisense eT*eG*dT*dT*d[5mC]*d[5mC]*dA*dG*d[5mC]*d[5mC]*e[5mC]*eA)
- % change in SGLT2 expression relative to saline (mouse SGLT2 mRNA [1]; 0.02 umol/kg i.p. twice per week for three weeks): −65%
- % change in SGLT2 expression relative to saline (mouse SGLT2 mRNA [1]; [14]): −88%
- % change in SGLT2 expression relative to saline (mouse SGLT2 mRNA [1]; 0.5 umol/kg i.p. twice per week for three weeks): −90%
- SGLT2 mRNA, percent change relative to saline treated animals (mouse SGLT2 mRNA [2]; 5 nmol/kg i.p. twice per week for three weeks): −18 percent change
- SGLT2 mRNA, percent change relative to saline treated animals (mouse SGLT2 mRNA [2]; 25 nmol/kg i.p. twice per week for three weeks): −47 percent change
- SGLT2 mRNA, percent change relative to saline treated animals (mouse SGLT2 mRNA [2]; 125 nmol/kg i.p. twice per week for three weeks): −70 percent change
- % change in SGLT2 expression relative to saline (rat SGLT2 mRNA; dose 3.125 umol/kg (head)): +25%
- % change in SGLT2 expression relative to saline (rat SGLT2 mRNA; dose 12.5 umol/kg (head)): −15%
- % change in SGLT2 expression relative to saline (rat SGLT2 mRNA; dose 50 umol/kg (head)): −65%
- % change in SGLT2 expression relative to saline (rat SGLT2 mRNA; dose 200 umol/kg (head)): −80%
- Plasma glucose levels [3]: significantly reduced
- HbA1C [4]: significantly reduced
- reduction of SGLT2 mRNA / inhibition of the expression of SGLT2 (dog SGLT2 mRNA; 1 mg/kg/wk dose): greater than 80%
- % change in SGLT2 expression relative to saline (dog SGLT2 mRNA; 1 mg/kg/wk): −85%
- % change in SGLT2 expression relative to saline (dog SGLT2 mRNA; 10 mg/kg/wk): −95%
- Urinary glucose excretion [5]: increased
- glucose tolerance [5]: improved glucose tolerance
- Peak plasma glucose levels decreased, on average ([5]; standard glucose tolerance test, compared to saline controls): over 50%

Substance: ISIS 391872: ApoB; GGTACATGGAAGTC 1-1-10-2 2′-(butylacetomido)-palmitamide Methyleneoxy BNA/Methyleneoxy BNA Unmodified cytosines in gap (antisense [PALM-G]*lG*dT*dA*dC*dA*dT*dG*dG*dA*dA*dG*lT*l[5mC])
- estimated ED50 (ApoB mRNA [6]): 1.9 mg/kg
- LDL-C ([7]; Example 30): fell below the limit of detection
- Triglycerides ([7]; at the 2.5 and 1.0 mg/kg doses (so in the source)): reduced
- total cholesterol, HDL-C and LDL-C ([7]; dose-dependent manner): markedly reduced

Substance: 399301 (antisense eG*eT*dG*dT*dG*d[5mC]*dA*d[5mC]*dA*d[5mC]*dA*dG*e[5mC]*eT) [compound 399301]
- % Inhib (PTP1B mRNA) (PTP1B mRNA [8]): 55%
- % Inhib (PTP1B mRNA) (PTP1B mRNA [9]): 43%
- % Inhibition of PTP1B mRNA (PTP1B mRNA [10]; PPS 198, 1.11 nM): 8%
- % Inhibition of PTP1B mRNA (PTP1B mRNA [10]; PPS 198, 3.33 nM): 63%
- % Inhibition of PTP1B mRNA (PTP1B mRNA [10]; PPS 198, 10.0 nM): 91%
- % Inhibition of PTP1B mRNA (PTP1B mRNA [10]; PPS 198, 30.0 nM): 97%
- % Inhibition of PTP1B mRNA (PTP1B mRNA [11]; PPS 3000, 1.11 nM): 16%
- % Inhibition of PTP1B mRNA (PTP1B mRNA [11]; PPS 3000, 3.33 nM): 65%
- % Inhibition of PTP1B mRNA (PTP1B mRNA [11]; PPS 3000, 10.0 nM): 93%
- % Inhibition of PTP1B mRNA (PTP1B mRNA [11]; PPS 3000, 30.0 nM): 99%

Substance: 398296 (antisense kG*kG*dT*dA*dC*dA*dT*dG*dG*dA*dA*dG*kT*kC) [compound 398296]
- % Inhib (ApoB mRNA in liver) (ApoB mRNA [12]; [14]): 17%
- % Inhib (ApoB mRNA in liver) (ApoB mRNA [12]; 0.32 umol/kg i.p. twice per week for three weeks): 35%
- % Inhib (ApoB mRNA in liver) (ApoB mRNA [12]; 1 umol/kg i.p. twice per week for three weeks): 80%
- % Inhib (ApoB mRNA in liver) (ApoB mRNA [12]; 3.2 umol/kg i.p. twice per week for three weeks): 98%
- % Inhib (ApoB mRNA in liver) (ApoB mRNA [13]; single i.p. dose 1 umol/kg): 19%
- % Inhib (ApoB mRNA in liver) (ApoB mRNA [13]; single i.p. dose 2 umol/kg): 54%
- % Inhib (ApoB mRNA in liver) (ApoB mRNA [13]; single i.p. dose 4 umol/kg): 81%
- % Inhib (ApoB mRNA in liver) (ApoB mRNA [13]; single i.p. dose 8 umol/kg): 97%
